Laboratory results as given in patent US5045566A, “Novel imidate insecticides” (ICI Americas Inc., priority 1989, dated 1991).

Assays:
Format in all cases: in vivo
[1] = system: Tobacco Budworm [Heliothis virescens (Fabricius)] larvae; assay: Tobacco budworm larvae, contact (TBW-C), 5 days; details: percent in solution, second-instar larvae
Protocol: (§1) The compounds in Tables 1 and 2 above were tested for insecticidal activity using the following testing procedures. LC50 values, based on the results of these tests and calculated according to dosage-mortality curves, are expressed in Table 3.
Tobacco Budworm [Heliothis virescens (Fabricius)]:
(a) Contact: Test compounds were diluted in a 50-50 acetone-water solution. Cotton (Gossypium sp.) cotyledons were immersed in the test solutions for 2-3 seconds and placed on a wire screen to dry. The dried leaves were placed in petri dishes containing a moistened piece of filter paper and infested with 5 second-instar tobacco budworm larvae. The dishes were placed in a high humidity chamber for 5 days, and percent mortality of the larvae recorded. Test concentrations ranged from 0.1% downward. The LC-50 values are expressed below in Table 3 under the heading "TBW-C" in terms of percent of the test compound in the solution.

[2] = system: Tobacco Budworm [Heliothis virescens (Fabricius)] eggs; assay: Tobacco budworm eggs (TBW-E); details: percent in solution; 2-day old eggs
Summary of the method: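 Paper towel patches bearing 2-day old eggs were dipped in acetone solutions of compound, then set in petri dishes over larval rearing medium at 78° F. Mortality was scored once all control eggs had hatched and larvae were feeding. LC50, from dosage-mortality curves, is given as percent compound in solution.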

[3] = system: Beet Armyworm (Spodoptera exigua); assay: Beet armyworm leaf dip (BAW), 5 days; details: percent in solution; second-instar larvae; five days
Protocol: as §1
Beet Armyworm (Spodoptera exigua):
Test compounds were diluted in a 50-50 acetone-water solution. Young leaves of sugar beets (Beta vulgaris) were immersed in the test solutions for 2-3 seconds and placed on a wire screen to dry. The dried leaves were placed in petri dishes containing a moistened filter paper and infested with five second-instar beet armyworm larvae. The dishes were placed in a high humidity chamber. Mortality of the larvae was recorded five days later. Test concentrations ranged from 0.1% downward. The LC-50 values are expressed below in Table 3 under the heading "BAW" in terms of percent of the test compound in solution.

[4] = system: Housefly [Musca domestica]; assay: Housefly contact mortality in dishes (HF), 48 hours; details: μg of test compound per 25 female flies
Summary of the method: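 Residual contact test: acetone dilution, 0.01% peanut oil spreader, solvent evaporated; 25 ♀ flies (1-2 d old) per cage; sugar-water plug; 48 h mortality read. LC50 in μg/25 female flies, from dose-mortality curves; top dose 100 μg/25 flies.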

[5] = system: Maize weevil [Sitophilus zeamais (Motschulsky)]; assay: Maize weevil on dipped corn seeds (MW), 48 hours; details: percent in solution, adult weevils
Summary of the method: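 LC50, given as percent of compound in dipping solution, comes from dosage-mortality curves over concentrations descending from 0.01%. Four corn seeds soaked 2-3 s in 50:50 acetone:water solution were dried and held with 10 adult weevils, about 25° C, mortality read after 48 h.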

[6] = system: Cabbage Looper [Trichoplusia ni (Hubner)]; assay: Cabbage looper leaf dip (CL), 3-5 days; details: percent in solution, second-instar larvae
Summary of the method: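 Compounds in 50-50 acetone-water were applied by dipping squash cotyledons (about 1×1.5 in) for 2-3 s; dried leaves went into petri dishes on moist filter paper with 5 second-instar larvae under high humidity. Mortality was scored after 3-5 days; LC50 from dosage-mortality curves, as percent compound in solution.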

[7] = system: Aster Leafhopper [Macrosteles fascifrens (Stal)]; assay: Aster leafhopper on dipped oat seedlings (LH), 48 hours; details: percent in solution, adults/nymphs
Summary of the method: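 Three ~10 cm oat seedlings per cup were dipped 2-3 seconds in 50-50 acetone-water compound solutions, dried, and caged with ten adult/nymph leafhoppers. Mortality was counted after 48 hours at concentrations from 0.05% downward. LC50, as percent compound in solution, came from dosage-mortality curves.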

[8] = system: Black Bean Aphid [Aphis fabae (Scop.)]; assay: Black bean aphid spray test on nasturtium (BBA), 48 hours; details: percent of test compound in sprayed solution
Summary of the method: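 LC50, given as percent test compound in the sprayed liquid, was calculated from dosage-mortality curves using concentrations from 0.05% downward. Sprays in 50:50 acetone-water went to runoff on ~5 cm nasturtiums carrying 25-50 aphids of mixed ages, one day after infestation. Deaths were counted 48 h later under greenhouse conditions.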

Row | SMILES | LC50 TBW C (contact) [1] [%] | LC50 TBW E (eggs) [2] [%] | LC50 BAW [3] [%] | LC50 HF [4] [µg] | LC50 MW [5] [%] | LC50 CL [6] [%] | LC50 LH [7] [%] | LC50 BBA [8] [%]
1 | CC(C)C(=Nc1ccc(Br)c(F)c1)OCc1ccc(F)c(Oc2ccc(F)cc2)c1 [Compound 282] | 0.0007 | 0.02 | 0.0025 | 16 | 0.008 | 0.00007 |  | 
2 | CC(C)C(=Nc1cccc(Cl)c1)OCc1cccc(Oc2ccccc2)c1 [Compound 7] |  | 0.009 | 0.006 | 8 |  | 0.006 | 0.0002 | 0.0003
3 | CC(C)C(=Nc1ccc(F)c(Cl)c1F)OCc1cccc(Oc2ccccc2)c1 [Compound 332] | 0.00075 | 0.015 | 0.0012 | 7 |  | 0.00045 |  | > 0.05
4 | FC(F)(F)Oc1ccc(N=C(OCc2cccc(Oc3ccccc3)c2)C2CC2)cc1 [Compound 63] |  |  | 0.005 | 30 | > 0.01 | 0.005 | 0.0001 | 0.0003
5 | CC(C)C(=Nc1ccc(Cl)cc1)OCc1ccc(F)c(Oc2ccccc2)c1 [Compound 23] |  | 0.017 | 0.001 | 5 |  | 0.0005 |  | 0.001
6 | CC(C)C(=Nc1cccc(C(F)(F)F)c1)OCc1cccc(Oc2ccccc2)c1 [Compound 67] |  | 0.01 | 0.006 | 15 |  | 0.001 | 0.00027 | 0.0002
7 | CC(C)C(=Nc1ccc(Cl)c(Cl)c1)OCc1cccc(Oc2ccccc2)c1 [Compound 14] |  |  | 0.005 | 40 | 0.01 | 0.004 | 0.001 | 0.0003
8 | Cc1c(Cl)cccc1N=C(OCc1cccc(Oc2ccccc2)c1)C(Cl)Cl [Compound 97] | 0.004 | 0.04 | 0.01 | 10 |  | 0.002 |  | 0.001
9 | CC(C)C(=Nc1ccc(F)c(Cl)c1F)OCc1cccc(Oc2ccc(Cl)cc2)n1 [Compound 500] | 0.00075 | 0.02 | 0.002 | 16 |  | 0.00009 |  | > 0.05
10 | CC(C)C(=Nc1ccc2c(c1)OC(F)(F)O2)OCc1cccc(Oc2ccc(Cl)cc2)c1 [Compound 450] | 0.0001 | 0.015 | 0.005 | 72 | 0.01 | 0.00016 |  | 
11 | Cc1ccc(N=C(OCc2cccc(Oc3ccccc3)c2)C(Cl)Cl)cc1 [Compound 139] | 0.005 | 0.05 | 0.007 | 4.2 |  | 0.015 |  | 0.001
12 | CC(C)C(=Nc1ccc(F)c(Cl)c1)OCc1cccc(Oc2ccc(Cl)cc2)n1 [Compound 463] |  | 0.0075 | 0.0024 | 8 | 0.01 | 0.00009 | 0.0003 | 0.05
13 | CC(C)C(=Nc1ccc(F)c(I)c1)OCc1ccc(F)c(Oc2ccc(Cl)cc2)c1 [Compound 326] | 0.0005 | 0.03 | 0.004 | 25 |  | 0.00015 |  | > 0.05
14 | CC(C)C(=Nc1ccc2c(c1)OC(C)(C)O2)OCc1ccc(F)c(Oc2ccc(F)cc2)c1 [Compound 283] | 0.0009 | 0.016 | 0.0013 | 23 | > 0.01 | 0.00009 |  | 
15 | CC(C)C(=Nc1ccc(F)cc1)OCc1ccc(F)c(Oc2ccccc2)c1 [Compound 53] | 0.0025 | 0.02 | 0.003 | 2 |  | 0.0005 |  | 0.001
16 | FC(F)(F)c1ccc(N=C(OCc2cccc(Oc3ccccc3)c2)C2CC2)c(Cl)c1 [Compound 65] |  |  | > 0.1 | > 100 |  | < 0.01 | > 0.05 | > 0.05
17 | O=[N+]([O-])c1cccc(N=C(OCc2cccc(Oc3ccccc3)c2)C(Cl)Cl)c1 [Compound 174] |  | > 0.1 | 0.1 | 17 |  | 0.03 |  | 0.05
18 | CCC(C)C(=Nc1ccc(F)c(Cl)c1)OCc1cccc(Oc2ccccc2)c1 (centres unmarked) [Compound 122] |  | 0.05 | 0.01 | 37 | > 0.01 | 0.0007 | > 0.05 | > 0.05
19 | Fc1ccc(N=C(OCc2cccc(Oc3ccccc3)c2)C2CC2)cc1 [Compound 45] |  |  | 0.1 | 30 |  | 0.03 | > 0.05 | 0.03
20 | Clc1ccc(N=C(OCc2cccc(Oc3ccccc3)c2)C2CC2)cc1 [Compound 32] |  |  | 0.03 | 37 | > 0.01 | 0.003 | > 0.05 | 0.003
21 | FC(F)(F)c1ccc(N=C(OCc2cccc(Oc3ccccc3)c2)C2CC2)cc1 [Compound 62] |  |  | 0.02 | 20 | > 0.01 | 0.005 | > 0.05 | 0.001
22 | O=[N+]([O-])c1ccc(N=C(OCc2cccc(Oc3ccccc3)c2)C(Cl)Cl)cc1 [Compound 173] | > 0.1 | > 0.1 | > 0.1 | 18 |  | 0.02 |  | > 0.05
23 | CC(C)C(=Nc1ccc(F)cc1)OCc1cccc(Oc2ccccc2)c1 [Compound 46] |  | 0.016 | 0.006 | 7 |  | 0.003 | 0.002 | 0.003
24 | CC(C)C(=Nc1ccc(F)c(Br)c1)OCc1cccc(Oc2ccc(F)cc2)c1 [Compound 253] | 0.0005 | > 0.1 |  | 10 | > 0.01 | 0.00013 | 0.003 | 0.002
25 | Clc1ccccc1N=C(OCc1cccc(Oc2ccccc2)c1)C(Cl)Cl [Compound 34] | 0.01 | > 0.1 | 0.015 | > 100 |  | 0.015 |  | > 0.05
